# From patent publication US12502435B2, “Metastatic brain tumor targeting peptides” (H. Lee Moffitt Cancer Center and Research Institute, Inc., priority 2018, dated 2025)
# Tests used:
# [1] = test system: Lung Cancer Brain Metastases Cells (MH1002, MH1016, H1915); assay: flow cytometry binding of peptide to lung cancer brain metastases cells; settings: compared to primary lung cancer cells and non-targeting peptides
# Source text: FIGS. 2A to 2C show binding of BRDT (LBM1) peptide applied to Primary Lung Cancer Cells, Non Malignant Brain Cells, Lung Cancer Brain Metastases Cells (MH1002, MH1016, H1915) analyzed through flow cytometry.
# FIGS. 4A to 4C show binding of LBM2 peptide applied to Primary Lung Cancer Cells, Non Malignant Brain Cells, Lung Cancer Brain Metastases Cells (MH1002, MH1016, H1915) analyzed through flow cytometry.
# FIGS. 6A to 6C show binding AMOT (LBM4) peptide applied to Primary Lung Cancer Cells, Non Malignant Brain Cells, Lung Cancer Brain Metastases Cells (MH1002, MH1016, H1915) analyzed through flow cytometry.
# For each peptide, as the concentration of peptide goes up, there was a right shift indicating binding to the brain met cells, with minimal binding to the lung cancer primary cells, showing specificity of binding to the brain mets over the lung cancer.
# [2] = test system: Lung Cancer Brain Metastases cells; assay: peptide binding to lung cancer brain metastases cells (FIGS. 3, 5, 7B); settings: MH1002
# [3] = test system: Primary Lung Cancer Cells; assay: peptide binding to primary lung cancer cells (FIGS. 3, 5, 7A)
# [4] = test system: non-malignant brain cells; assay: peptide binding to non-malignant brain cells (FIGS. 3, 5, 7A)
Sequence,flow cytometry shift with peptide applied to lung cancer BM cells [1],binding to Lung Cancer Brain Metastases cells [2],binding to primary lung cancer cells [3],binding to non-malignant brain cells [4]
TLGLRPVPVATT [LBM2],right shift,positive binding,no binding,no binding
SYPSNALSLHKY [LBM1],right shift,positive binding,no binding,no binding
